Data as given in US8258134B2, “Pyridazinone glucokinase activators” (Hoffmann-La Roche Inc., priority 2008, dated 2012).

Molecular target: T1, Recombinant human liver GK1 (GST-GK) (Homo sapiens, UniProt P35557)
T1 construct: made in house; host or cells: E. coli
T1 sequence (P35557 1-466 isoform P35557-2): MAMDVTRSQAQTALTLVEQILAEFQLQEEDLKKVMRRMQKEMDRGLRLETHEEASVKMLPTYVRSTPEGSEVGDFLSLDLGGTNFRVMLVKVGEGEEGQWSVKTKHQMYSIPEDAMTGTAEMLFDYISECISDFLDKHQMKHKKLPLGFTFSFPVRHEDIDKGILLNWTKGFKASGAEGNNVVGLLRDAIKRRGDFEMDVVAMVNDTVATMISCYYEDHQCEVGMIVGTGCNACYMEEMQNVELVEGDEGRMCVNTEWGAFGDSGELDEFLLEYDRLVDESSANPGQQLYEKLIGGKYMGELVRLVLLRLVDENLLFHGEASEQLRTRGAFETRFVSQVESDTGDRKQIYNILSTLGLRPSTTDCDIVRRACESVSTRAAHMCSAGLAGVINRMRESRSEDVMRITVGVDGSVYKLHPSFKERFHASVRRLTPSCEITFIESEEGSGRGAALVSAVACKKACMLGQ
Experiment: Glucokinase in vitro assay (G6PDH-coupled NADH generation, OD340)
Format: biochemical
Conditions: 5 mM D-glucose, 30° C., pH 7.1, 10% DMSO
In short: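 GST-tagged recombinant GK1 expressed in E. coli, run at 30° C, pH 7.1 Hepes with 5 mM D-glucose, 1 mM ATP and 1.8 mM NAD, G6PDH-coupled. Compounds were in 10% DMSO final, with a 10 min pre-incubation before enzyme addition. OD340/min rate measured; SC1.5 is the activator concentration giving a 50% increase in activity.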

Row | SC1.5 average (concentration of activator that produced a 50% increase in the activity of GK) | SMILES
1 | 0.838 µM | CC(C)(O)Cn1ccc(NC(=O)[C@@H](CC2CCCCC2)n2ncc(Oc3c(F)cccc3F)cc2=O)n1 [Example 51B, (R)-3-Cyclohexyl-2-[4-(2,6-difluoro-phenoxy)-6-oxo-6H-pyridazin-1-yl]-N-[1-(2-hydroxy-2-methyl-propyl)-1H-pyrazol-3-yl]-propionamide]
2 | 0.066 µM | O=C(Nc1ccn(CCO)n1)[C@H](CC1CCCC1)n1ncc(Oc2c(F)cccc2F)cc1=O [Example 60A, (S)-3-Cyclopentyl-2-[4-(2,6-difluoro-phenoxy)-6-oxo-6H-pyridazin-1-yl]-N-[1-(2-hydroxy-ethyl)-1H-pyrazol-3-yl]-propionamide]
3 | 1.942 µM | O=C(Nc1ccn(CCO)n1)[C@@H](CC1CCCC1)n1ncc(Oc2c(F)cccc2F)cc1=O [Example 60B, (R)-3-Cyclopentyl-2-[4-(2,6-difluoro-phenoxy)-6-oxo-6H-pyridazin-1-yl]-N-[1-(2-hydroxy-ethyl)-1H-pyrazol-3-yl]-propionamide]
4 | 0.049 µM | O=C(Nc1ccn(C[C@H](O)CO)n1)[C@H](CC1CCCC1)n1ncc(Oc2c(F)cccc2F)cc1=O [Example 65A, (S)-3-Cyclopentyl-2-[4-(2,6-difluoro-phenoxy)-6-oxo-6H-pyridazin-1-yl]-N-[1-((S)-2,3-dihydroxy-propyl)-1H-pyrazol-3-yl]-propionamide]
5 | 3.148 µM | O=C(Nc1ccn(C[C@H](O)CO)n1)[C@@H](CC1CCCC1)n1ncc(Oc2c(F)cccc2F)cc1=O [Example 65B, (R)-3-Cyclopentyl-2-[4-(2,6-difluoro-phenoxy)-6-oxo-6H-pyridazin-1-yl]-N-[1-((S)-2,3-dihydroxy-propyl)-1H-pyrazol-3-yl]-propionamide]

Further lines, the compound ahead of its results:

Row | SMILES | SC1.5 average (concentration of activator that produced a 50% increase in the activity of GK)
6 | CCC(CC)CC(C(=O)Nc1ccn(CC(C)(C)O)n1)n1ncc(Oc2c(F)cccc2F)cc1=O (centres unmarked) [Example 52, 2-[4-(2,6-Difluoro-phenoxy)-6-oxo-6H-pyridazin-1-yl]-4-ethyl-hexanoic acid [1-(2-hydroxy-2-methyl-propyl)-1H-pyrazol-3-yl]-amide] | 0.456 µM
7 | O=C(Nc1ccn(CCO)n1)C(CC1CCOCC1)n1ncc(Oc2c(F)cccc2F)cc1=O (centres unmarked) [Example 53, 2-[4-(2,6-Difluoro-phenoxy)-6-oxo-6H-pyridazin-1-yl]-N-[1-(2-hydroxy-ethyl)-1H-pyrazol-3-yl]-3-(tetrahydro-pyran-4-yl)-propionamide] | 0.469 µM
8 | CCC(CC)CC(C(=O)Nc1ccn(CCO)n1)n1ncc(Oc2c(F)cccc2F)cc1=O (centres unmarked) [Example 54, 2-[4-(2,6-Difluoro-phenoxy)-6-oxo-6H-pyridazin-1-yl]-4-ethyl-hexanoic acid [1-(2-hydroxy-ethyl)-1H-pyrazol-3-yl]-amide] | 0.544 µM
9 | O=C(Nc1ccn(CCO)n1)C(CC1CCC1)n1ncc(Oc2c(F)cccc2F)cc1=O (centres unmarked) [Example 55, 3-Cyclobutyl-2-[4-(2,6-difluoro-phenoxy)-6-oxo-6H-pyridazin-1-yl]-N-[1-(2-hydroxy-ethyl)-1H-pyrazol-3-yl]-propionamide] | 0.468 µM
10 | O=C(Nc1ccn(CCO)n1)C(CC1CCCCC1)n1ncc(Oc2c(F)cccc2F)cc1=O (centres unmarked) [Example 56, 3-Cyclohexyl-2-[4-(2,6-difluoro-phenoxy)-6-oxo-6H-pyridazin-1-yl]-N-[1-(2-hydroxy-ethyl)-1H-pyrazol-3-yl]-propionamide] | 0.153 µM
11 | O=C(Nc1ccn(CCO)n1)C(Cc1c(F)cccc1F)n1ncc(Oc2c(F)cccc2F)cc1=O (centres unmarked) [Example 57, 2-[4-(2,6-Difluoro-phenoxy)-6-oxo-6H-pyridazin-1-yl]-3-(2,6-difluoro-phenyl)-N-[1-(2-hydroxy-ethyl)-1H-pyrazol-3-yl]-propionamide] | 0.986 µM
12 | O=C(Nc1ccn(CCO)n1)C(Cc1ccccc1)n1ncc(Oc2c(F)cccc2F)cc1=O (centres unmarked) [Example 58, 2-[4-(2,6-Difluoro-phenoxy)-6-oxo-6H-pyridazin-1-yl]-N-[1-(2-hydroxy-ethyl)-1H-pyrazol-3-yl]-3-phenyl-propionamide] | 2.719 µM
13 | CC(C)CC(C(=O)Nc1ccn(CCO)n1)n1ncc(Oc2c(F)cccc2F)cc1=O (centres unmarked) [Example 59, 2-[4-(2,6-Difluoro-phenoxy)-6-oxo-6H-pyridazin-1-yl]-4-methyl-pentanoic acid [1-(2-hydroxy-ethyl)-1H-pyrazol-3-yl]-amide] | 0.576 µM
14 | O=C(Nc1ccn(CCO)n1)C(CC1CCCC1)n1ncc(Oc2c(F)cccc2F)cc1=O (centres unmarked) [Example 60, 3-Cyclopentyl-2-[4-(2,6-difluoro-phenoxy)-6-oxo-6H-pyridazin-1-yl]-N-[1-(2-hydroxy-ethyl)-1H-pyrazol-3-yl]-propionamide] | 0.166 µM
15 | CC(C)CC(C(=O)Nc1ccn(C[C@@H](O)CO)n1)n1ncc(Oc2c(F)cccc2F)cc1=O (stereo partly drawn) [Example 61, 2-[4-(2,6-Difluoro-phenoxy)-6-oxo-6H-pyridazin-1-yl]-4-methyl-pentanoic acid [1-((R)-2,3-dihydroxy-propyl)-1H-pyrazol-3-yl]-amide] | 0.383 µM
16 | O=C(Nc1ccn(C[C@@H](O)CO)n1)C(CC1CCOCC1)n1ncc(Oc2c(F)cccc2F)cc1=O (stereo partly drawn) [Example 62, 2-[4-(2,6-difluoro-phenoxy)-6-oxo-6H-pyridazin-1-yl]-N-[1-((R)-2,3-dihydroxy-propyl)-1H-pyrazol-3-yl]-3-(tetrahydro-pyran-4-yl)-propionamide] | 0.373 µM
17 | O=C(Nc1ccn(C[C@@H](O)CO)n1)C(CC1CCCCC1)n1ncc(Oc2c(F)cccc2F)cc1=O (stereo partly drawn) [Example 63, 3-Cyclohexyl-2-[4-(2,6-difluoro-phenoxy)-6-oxo-6H-pyridazin-1-yl]-N-[1-((R)-2,3-dihydroxy-propyl)-1H-pyrazol-3-yl]-propionamide] | 0.117 µM
18 | CCC(CC)CC(C(=O)Nc1ccn(C[C@@H](O)CO)n1)n1ncc(Oc2c(F)cccc2F)cc1=O (stereo partly drawn) [Example 64, 2-[4-(2,6-Difluoro-phenoxy)-6-oxo-6H-pyridazin-1-yl]-4-ethyl-hexanoic acid [1-((R)-2,3-dihydroxy-propyl)-1H-pyrazol-3-yl]-amide] | 0.551 µM
19 | O=C(Nc1ccn(C[C@H](O)CO)n1)C(CC1CCCC1)n1ncc(Oc2c(F)cccc2F)cc1=O (stereo partly drawn) [Example 65, 3-Cyclopentyl-2-[4-(2,6-difluoro-phenoxy)-6-oxo-6H-pyridazin-1-yl]-N-[1-((S)-2,3-dihydroxy-propyl)-1H-pyrazol-3-yl]-propionamide] | 0.102 µM
20 | COC(=O)c1ccc(NC(=O)C(CC2CCCC2)n2ncc(Oc3ccccc3C3CCCC3)cc2=O)nc1 (centres unmarked) [Example 66, 6-{3-Cyclopentyl-2-[4-(2-cyclopentyl-phenoxy)-6-oxo-6H-pyridazin-1-yl]-propionylamino}-nicotinic acid methyl ester] | 1.74 µM
